Measurements taken from patent publication US12715858B2, “Pyridazinone compounds” (INVENTISBIO CO., LTD., priority 2020, dated 2026).
≈ marks a conversion by molar mass, not a printed value. Read-outs that look alike come from different tables or passages of the source.

What was measured:
Format in all cases: physicochemical
[1] = Solubility in water and bio-relevant media at 37° C. (HPLC of filtrate, pH of filtrate, XRPD of filter cake); conditions: for solubility at 24 h / solubility at 0.5 h / solubility at 2 h: thermodynamic from solid; for solubility at 24 h / Solubility (mg/mL) 0.5 h / Solubility (mg/mL) 2 h / Solubility (mg/mL) 24 h / solubility at 0.5 h / solubility at 2 h: 37° C.; for solubility at 24 h: read-out: Solubility (mg/mL) 24 h; for XRPD: filter cake obtained at 2 or 24 hours; for PH 0.5 h / PH 2 h / PH 24 h: pH of the filtrate; for solubility at 0.5 h: read-out: Solubility (mg/mL) 0.5 h; for solubility at 2 h: read-out: Solubility (mg/mL) 2 h
Method: Solubility of Form I of free acid, Form 1 and Form 2 of potassium salt, and Form A of sodium salt were tested in water and in bio-relevant media of Simulated Intestinal Fluid (SIF), Simulated Gastric Fluid (SGF), Fasted State Simulated Intestinal Fluid (FaSSIF), and Fed State Simulated Intestinal Fluid (FeSSIF) at 37° C. up to 24 hours. About 12 mg of the sample was weighed into sample vials and then 1.5 mL of each media was added to make suspensions respectively. All suspensions were shaken at 37° C. with 200 rpm.

[2] = Solid state stability at 60° C. and 40° C./75% RH for 7 days (HPLC purity, XRPD); conditions: for Purity at Day 7 (Area %) 40° C./75% RH: 7 days at 40° C./75% RH; for Purity at Day 7 (Area %) 40° C./75% RH / Purity at Day 7 (Area %) 60° C.: HPLC; for Purity at Day 7 (Area %) 60° C.: 7 days at 60° C.; for XRPD 40° C./75% RH: crystal form after 7 days at 40° C./75% RH; for XRPD 60° C.: crystal form after 7 days at 60° C.; for Initial Purity (Area %): day 0, HPLC
Method: HPLC analysis was performed with an Agilent HPLC 1260 series instrument.
Appropriate amount of free acid Form I, potassium salts Form 1 and Form 2, and sodium salt Form A were placed at 60° C. and 40° C./75% RH for 7 days. At 0 and 7 days, the samples were dissolved in diluent to prepare a solution of 0.5 mg/mL for HPLC purity analysis. Solid samples were analyzed by XRPD to check the crystal form.

[3] = Physical stability upon grinding and high humidity; conditions: for crystal form (XRPD) after grinding / crystallinity after grinding: ground manually, up to 5 min
Method: Physical stability of Form I was evaluated upon grinding and high humidity (RT/92.5% RH for 24 days). For mechanical treatment study, Form I (10 mg) was ground manually for 5 min, and the sample was analyzed by XRPD after grinding for 2 and 5 min, respectively.

[4] = Dynamic Vapor Sorption (DVS); conditions: for hygroscopicity: DVS; for crystal form of solid after the DVS study: XRPD after DVS; for water uptake / weight gain by DVS: at 80% RH (Form I: 0 to 80% RH), 25° C.
Method: Dynamic Vapor Sorption (DVS): Moisture sorption/desorption data was collected on a IGASorp DVS. The sample was placed into a tarred sample chamber and weighed automatically. The sample was dried at 50° C. until the % RH was less than 0.3% and cooled to 25° C. Set the instrument parameters as below.

[5] = Water activity study of potassium salt Form 1 in MeOH/water; conditions: for Result (XRPD form): 24 h
Method: Form 1 was further tested to determine the influence of water on the crystalline form. Thus, 15 mg of potassium salt Form 1 was added into 0.3 mL of MeOH/water (with various amounts of water), and then the suspension was kept stirring at 25° C. for 24 h. The solid was collected by filtration and characterized by XRPD.

[6] = Interconversion study of potassium salt Form 1 and Form 2 (slurry of equal amounts); conditions: slurry in MeOH/EA and acetone/water, RT or 50° C.
Method: Interconversion study were performed in MeOH/EA (1/9, RT or 50° C.) and acetone/water (20/1, RT or 50° C.). Equal amounts of Form 1 and Form 2 were slurried in specified solvents at different temperatures for certain time.

[7] = Slurry study of Form II at 50° C.; conditions: MeOH, ACN, acetone, EA and water at 50° C., after 1 day
Method: In addition, slurry study of Form II was performed in MeOH, ACN, acetone, EA and water at 50° C., respectively.

[8] = FeSSIF (Fed State Simulated Intestinal Fluid), 37 °C, fessif, FeSSIF
[9] = water, 37 °C, water, Water, LOQ is 0.5 μg/mL

Structure (SMILES): Cc1nn(-c2cc(Cl)c(Oc3cc(C(C)C)c(=O)[nH]n3)c(Cl)c2)c(=O)[nH]c1=O [Free acid Form I, 2-(3,5-dichloro-4-((5-isopropyl-6-oxo-1,6-dihydropyridazin-3-yl)oxy)phenyl)-6-methyl-1,2,4-triazine-3,5(2H,4H)-dione]
- solubility at 24 h ([1]; FaSSIF (Fasted State Simulated Intestinal Fluid), FaSSIF): 0.00052 mg/mL (≈ 1.23 µM)
- Solubility (mg/mL) 0.5 h ([1]; FaSSIF, LOQ is 0.5 μg/mL): <LOQ
- Solubility (mg/mL) 2 h ([1]; FaSSIF, LOQ is 0.5 μg/mL): <LOQ
- Solubility (mg/mL) 0.5 h ([1]; SGF, LOQ is 0.5 μg/mL): <LOQ
- Solubility (mg/mL) 2 h ([1]; SGF, LOQ is 0.5 μg/mL): <LOQ
- Solubility (mg/mL) 24 h ([1]; SGF, LOQ is 0.5 μg/mL): <LOQ
- Solubility (mg/mL) 0.5 h ([1]; SIF, LOQ is 0.5 μg/mL): <LOQ
- Solubility (mg/mL) 2 h ([1]; SIF, LOQ is 0.5 μg/mL): <LOQ
- Solubility (mg/mL) 24 h ([1]; SIF, LOQ is 0.5 μg/mL): <LOQ
- Solubility (mg/mL) 0.5 h ([1]; Water, LOQ is 0.5 μg/mL): <LOQ
- Solubility (mg/mL) 2 h ([1]; Water, LOQ is 0.5 μg/mL): <LOQ
- Solubility (mg/mL) 24 h ([1]; Water, LOQ is 0.5 μg/mL): <LOQ
- XRPD ([1]; FaSSIF): unchanged
- XRPD ([1]; SGF): unchanged
- XRPD ([1]; SIF): unchanged
- XRPD ([1]; Water): unchanged
- PH 0.5 h ([1]; FaSSIF): 6.72
- PH 2 h ([1]; FaSSIF): 6.60
- PH 24 h ([1]; FaSSIF): 6.74
- PH 0.5 h ([1]; FeSSIF): 4.91
- PH 2 h ([1]; FeSSIF): 4.86
- PH 24 h ([1]; FeSSIF): 5.00
- PH 0.5 h ([1]; SGF): 1.17
- PH 2 h ([1]; SGF): 1.19
- PH 24 h ([1]; SGF): 1.16
- PH 0.5 h ([1]; SIF): 6.89
- PH 2 h ([1]; SIF): 6.86
- PH 24 h ([1]; SIF): 6.79
- PH 0.5 h ([1]; Water): 6.48
- PH 2 h ([1]; Water): 6.59
- PH 24 h ([1]; Water): 6.44
- solubility at 0.5 h ([1]; FeSSIF): 0.00056 mg/mL (≈ 1.32 µM)
- solubility at 2 h ([1]; FeSSIF): 0.001 mg/mL (≈ 2.36 µM)
- solubility at 24 h ([1]; FeSSIF): 0.0011 mg/mL (≈ 2.59 µM)
- Purity at Day 7 (Area %) 40° C./75% RH [2]: 96.42 Area %
- Purity at Day 7 (Area %) 60° C. [2]: 96.47 Area %
- XRPD 40° C./75% RH [2]: Unchanged
- XRPD 60° C. [2]: Unchanged
- Initial Purity (Area %) [2]: 96.45 Area %
- form change upon high humidity ([3]; RT/92.5% RH for 24 days): no form change was observed
- crystal form (XRPD) after grinding [3]: remained unchanged
- crystallinity after grinding [3]: significantly decreased
- hygroscopicity [4]: slightly hygroscopic
- crystal form of solid after the DVS study [4]: remained unchanged
- water uptake / weight gain by DVS [4]: 0.9%

Structure (SMILES): Cc1nn(-c2cc(Cl)c(Oc3cc(C(C)C)c(=O)[nH]n3)c(Cl)c2)c(=O)[n-]c1=O.[K+] [Potassium salt Form 1]
- Result (XRPD form) ([5]; MeOH/water (80/20), Aw 0.3598, 25° C.): Form 1 + 2
- Result (XRPD form) ([5]; MeOH/water (86/14), Aw 0.2679, 25° C.): Form 1 + 2
- Result (XRPD form) ([5]; MeOH/water (90/10), Aw 0.1998, 25° C.): Form 1 + 2
- Result (XRPD form) ([5]; MeOH/water (95/5), Aw 0.1058, 25° C.): Form 2
- Result (XRPD form) ([5]; MeOH/water (97/3), Aw 0.065, 25° C.): Form 2
- Result (XRPD form) ([5]; MeOH/water (99/1), Aw 0.021, 25° C.): Form 1 + 2
- Result (XRPD form) ([5]; MeOH/water (99.5/0.5), Aw 0.010, 25° C.): Form 1
- Result (XRPD form) ([5]; MeOH/water (100/0), Aw 0, 25° C.): Form 1
- water activity at which Form 1 has the tendency to convert to Form 2 ([5]; after 24 h, 0.5% of water content): > 0.01
- relative stability of Form 1 and Form 2 [6]: more stable in non-aqueous system
- solubility at 2 h ([1]; FaSSIF (Fasted State Simulated Intestinal Fluid), 37 °C, fassif, FaSSIF, LOQ is 0.5 μg/mL): 0.013 mg/mL
- solubility at 24 h ([1]; FaSSIF (Fasted State Simulated Intestinal Fluid), 37 °C, fassif, FaSSIF): 0.0064 mg/mL
- Solubility (mg/mL) 0.5 h ([1]; FaSSIF, LOQ is 0.5 μg/mL): <LOQ
- solubility at 2 h [1, 8]: 0.0089 mg/mL
- solubility at 24 h [1, 8]: 0.013 mg/mL
- Solubility (mg/mL) 0.5 h ([1]; FeSSIF): 0.0017 mg/mL
- Solubility (mg/mL) 0.5 h ([1]; SGF, LOQ is 0.5 μg/mL): <LOQ
- Solubility (mg/mL) 2 h ([1]; SGF, LOQ is 0.5 μg/mL): <LOQ
- Solubility (mg/mL) 24 h ([1]; SGF, LOQ is 0.5 μg/mL): <LOQ
- Solubility (mg/mL) 0.5 h ([1]; SIF, LOQ is 0.5 μg/mL): <LOQ
- Solubility (mg/mL) 2 h ([1]; SIF, LOQ is 0.5 μg/mL): <LOQ
- Solubility (mg/mL) 24 h ([1]; SIF, LOQ is 0.5 μg/mL): <LOQ
- XRPD ([1]; FaSSIF): Free acid
- XRPD ([1]; FeSSIF): Free acid
- XRPD ([1]; SGF): Free acid
- XRPD ([1]; SIF): Free acid
- XRPD ([1]; Water): Free acid
- PH 0.5 h ([1]; FaSSIF): 7.03
- PH 2 h ([1]; FaSSIF): 7.36
- PH 24 h ([1]; FaSSIF): 8.29
- PH 0.5 h ([1]; FeSSIF): 5.06
- PH 2 h ([1]; FeSSIF): 5.21
- PH 24 h ([1]; FeSSIF): 5.24
- PH 0.5 h ([1]; SGF): 1.18
- PH 2 h ([1]; SGF): 1.26
- PH 24 h ([1]; SGF): 1.25
- PH 0.5 h ([1]; SIF): 7.52
- PH 2 h ([1]; SIF): 7.52
- PH 24 h ([1]; SIF): 7.44
- PH 0.5 h ([1]; Water): 11.02
- PH 2 h ([1]; Water): 11.00
- PH 24 h ([1]; Water): 10.57
- solubility at 0.5 h [1, 9]: 5.79 mg/mL
- solubility at 2 h [1, 9]: 5.28 mg/mL
- solubility at 24 h [1, 9]: 5.15 mg/mL
- chemical and physical stability ([2]; 40° C./75% RH and 60° C. for 7 days): chemically and physically stable
- Purity at Day 7 (Area %) 40° C./75% RH [2]: 99.29 Area %
- Purity at Day 7 (Area %) 60° C. [2]: 99.50 Area %
- XRPD 40° C./75% RH [2]: Unchanged
- XRPD 60° C. [2]: Unchanged
- Initial Purity (Area %) [2]: 99.23 Area %
- crystal form (XRPD) after grinding [3]: remained unchanged
- crystallinity after grinding [3]: decreased
- DVS Water % at 80% RH ([4]; 80% RH, forms of potassium salt of Compound 1): 1.8%
- hygroscopicity [4]: slight hygroscopic
- crystal form of solid after the DVS study [4]: remained unchanged
- water uptake / weight gain by DVS [4]: 1.8%

Structure (SMILES): Cc1nn(-c2cc(Cl)c(Oc3cc(C(C)C)c(=O)[nH]n3)c(Cl)c2)c(=O)[nH]c1=O [Form II]
- form conversion in slurry [7]: completely converted to Form I
